Results as given in PubChem BioAssay (NCI).
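A five-concentration, 48-hour dose response in 96-well plates underlies each endpoint, interpolated linearly between surrounding concentrations. Here, GI50 denotes the concentration required for 50% inhibition of growth. At the TGI there is no net growth.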

Experiments:
Assay in all cases: inhibition of tumour cell growth, NCI panel, 48 h
[1] = test system: COLO 205 colon
[2] = test system: HCT-116 colon
[3] = test system: BT-549 breast
[4] = test system: PC-3 prostate
[5] = test system: HCC-2998 colon
[6] = test system: MOLT-4 leukemia
[7] = test system: MDA-MB-231 breast
[8] = test system: OVCAR-4 ovarian
[9] = test system: SK-OV-3 ovarian
[10] = test system: ACHN renal
[11] = test system: HCT-15 colon
[12] = test system: HT29 colon
[13] = test system: NCI-H226 lung
[14] = test system: IGROV1 ovarian
[15] = test system: NCI-H522 lung
[16] = test system: NCI-H23 lung
[17] = test system: HL-60(TB) leukemia
[18] = test system: MDA-MB-435
[19] = test system: SK-MEL-2 melanoma
[20] = test system: K-562 leukemia
[21] = test system: HOP-92 NSCLC
[22] = test system: T-47D breast
[23] = test system: SNB-19 CNS
[24] = test system: OVCAR-3 ovarian
[25] = test system: CCRF-CEM leukemia
[26] = test system: TK-10 renal
[27] = test system: A498 renal
[28] = test system: SN12C renal
[29] = test system: DU-145 prostate
[30] = test system: U251 CNS
[31] = test system: SK-MEL-28 melanoma
[32] = test system: SF-268 CNS
[33] = test system: UACC-257 melanoma
[34] = test system: RXF 393 renal
[35] = test system: RPMI-8226 leukemia
[36] = test system: KM12 colon
[37] = test system: SF-539 CNS
[38] = test system: NCI-H460 lung
[39] = test system: SNB-75 CNS
[40] = test system: NCI/ADR-RES ovarian
[41] = test system: OVCAR-5 ovarian
[42] = test system: MALME-3M melanoma
[43] = test system: OVCAR-8 ovarian
[44] = test system: SF-295 CNS
[45] = test system: M14 melanoma
[46] = test system: SR leukemia
[47] = test system: CAKI-1 renal
[48] = test system: 786-0 renal
[49] = test system: A549 NSCLC
[50] = test system: UO-31 renal
[51] = test system: SK-MEL-5 melanoma
[52] = test system: MCF7 breast
[53] = test system: SW-620 colon
[54] = test system: HS 578T breast
[55] = test system: HOP-62 NSCLC
[56] = test system: UACC-62 melanoma

SMILES: O=C1Nc2ccccc2/C1=C\c1c[nH]c2ccc(Br)cc12
- GI50 [1]: 1.77 µM
- TGI [1]: 3.23 µM
- GI50 [2]: 1.61 µM
- TGI [2]: 3.11 µM
- GI50 [3]: 4.26 µM
- TGI [3]: 19.5 µM
- GI50 [4]: 2.42 µM
- TGI [4]: 10.3 µM
- GI50 [5]: 1.86 µM
- TGI [5]: 3.45 µM
- GI50 [6]: 2.76 µM
- TGI [6]: 8.6 µM
- GI50 [7]: 1.63 µM
- TGI [7]: 3.24 µM
- GI50 [8]: 2.7 µM
- TGI [8]: 22.5 µM
- GI50 [9]: 3.63 µM
- TGI [9]: 15 µM
- GI50 [10]: 2.82 µM
- TGI [10]: 10.1 µM
- GI50 [11]: 2.12 µM
- TGI [11]: 5.59 µM
- GI50 [12]: 2.75 µM
- TGI [12]: 6.56 µM
- GI50 [13]: 6.23 µM
- TGI [13]: 41.9 µM
- GI50 [14]: 2.57 µM
- TGI [14]: 11.2 µM
- GI50 [15]: 1.83 µM
- TGI [15]: 3.77 µM
- GI50 [16]: 1.92 µM
- TGI [16]: 5.61 µM
- GI50 [17]: 2.79 µM
- TGI [17]: 7.88 µM
- GI50 [18]: 2.44 µM
- TGI [18]: 6.89 µM
- GI50 [19]: 1.99 µM
- TGI [19]: 4.41 µM
- GI50 [20]: 3.26 µM
- TGI [20]: 8 µM
- GI50 [21]: 0.573 µM
- TGI [21]: 3.3 µM
- GI50 [22]: 3.65 µM
- TGI [22]: 30.3 µM
- GI50 [23]: 3.71 µM
- TGI [23]: 25.5 µM
- GI50 [24]: 2.29 µM
- TGI [24]: 5.58 µM
- GI50 [25]: 3.18 µM
- TGI [25]: 10.5 µM
- GI50 [26]: 3.99 µM
- TGI [26]: 9.5 µM
- GI50 [27]: 1.88 µM
- TGI [27]: 6.31 µM
- GI50 [28]: 2.63 µM
- TGI [28]: 7.6 µM
- GI50 [29]: 3.23 µM
- TGI [29]: 11 µM
- GI50 [30]: 2.39 µM
- TGI [30]: 7.09 µM
- GI50 [31]: 4.16 µM
- TGI [31]: 20.9 µM
- GI50 [32]: 3.3 µM
- TGI [32]: 16.2 µM
- GI50 [33]: 2.91 µM
- TGI [33]: 14.5 µM
- GI50 [34]: 3.01 µM
- TGI [34]: 8.72 µM
- GI50 [35]: 2.32 µM
- TGI [35]: 7.93 µM
- GI50 [36]: 0.633 µM
- TGI [36]: 2.37 µM
- GI50 [37]: 4.77 µM
- TGI [37]: 17.1 µM
- GI50 [38]: 2.11 µM
- TGI [38]: 4.98 µM
- GI50 [39]: 2.68 µM
- TGI [39]: 9.37 µM
- GI50 [40]: 2.49 µM
- TGI [40]: 7.04 µM
- GI50 [41]: 2.26 µM
- TGI [41]: 5.86 µM
- GI50 [42]: 5.55 µM
- TGI [42]: 25.1 µM
- GI50 [43]: 2.85 µM
- TGI [43]: 10.4 µM
- GI50 [44]: 3.99 µM
- TGI [44]: 21.6 µM
- GI50 [45]: 1.67 µM
- TGI [45]: 3.68 µM
- GI50 [46]: 2.59 µM
- TGI [46]: 6.32 µM
- GI50 [47]: 2.67 µM
- TGI [47]: 13.6 µM
- GI50 [48]: 3.82 µM
- TGI [48]: 14.7 µM
- GI50 [49]: 2.26 µM
- TGI [49]: 6.23 µM
- GI50 [50]: 2.22 µM
- TGI [50]: 8.79 µM
- GI50 [51]: 4.41 µM
- TGI [51]: 17.2 µM
- GI50 [52]: 2.43 µM
- TGI [52]: 11.2 µM
- GI50 [53]: 2.89 µM
- TGI [53]: 10.7 µM
- GI50 [54]: 2.2 µM
- TGI [54]: 8.33 µM
- GI50 [55]: 3.5 µM
- TGI [55]: 13.3 µM
- GI50 [56]: 1.71 µM
- TGI [56]: 3.72 µM
